# Assay results reported in patent publication US8071763B2, “Methods for treatment of nocturia” (Daiichi Sankyo Company, Limited, priority 2002, dated 2011).
# Tested on: patients with nocturia
# Test: Continuation and termination of loxoprofen administration after the trial treatment
# Format: in vivo, human
# Method: After the initial study, loxoprofen was administered at the patients' discretion; 101 continued loxoprofen therapy for =320 (mean 61) days. After the evaluation, loxoprofen therapy was continued or not according to the patients' wishes (Table 5). Of 101 excellent and improved patients, 11 continued to take loxoprofen every night and 43 when necessary. The improvement of nocturia lasted for several months even after discontinuation of therapy in 11 (10%) who discontinued loxoprofen after 5 to 310 days' administration. In addition, in five patients in whom loxoprofen's effectiveness reduced after continuous administration, the effectiveness recovered with occasional administration following withdrawal for several weeks.
# [1] = discontinued after 5 to 310 days' administration
# [2] = patients with Excellent Response
# [3] = patients with Improved Response
smiles,measurement,setting,value
"CC(C(=O)O)c1ccc(CC2CCCC2=O)cc1 (centres unmarked) [loxoprofen, loxoprofen sodium]","Improvement of nocturia lasted for several months after discontinuation of therapy, % of patients",[1],10%
same,"Improvement of nocturia lasted for several months after discontinuation of therapy, no. of patients",[1],11
same,"Effectiveness reduced after continuous administration and recovered with occasional administration, no. of patients",following withdrawal for several weeks,five
same,"Discontinued therapy due to adverse events, no. of patients",[2],1
same,"Discontinued therapy: cured or stable improvement, no. of patients",[2],7
same,"Discontinued therapy due to adverse events, no. of patients",[3],9
same,"Discontinued therapy: cured or stable improvement, no. of patients",[3],4
same,"Discontinued therapy: reduced efficacy, no. of patients",[3],2
